Each structure is given as a SMILES string.

For assay [1], the system named is entorhinal cortex of aMCI subjects. Description: fMRI activity in entorhinal cortex (EC) during successful memory judgments. It counts as in vivo, human. The settings on record: levetiracetam 125 mg twice a day for two weeks vs placebo.
The subject of assay [2] is reelin in Entorhinal Cortex (EC2). In words: reelin in entorhinal cortex after four weeks of osmotic minipump treatment (Example 5). It counts as in vivo, rat. To be noted: levetiracetam 10 mg/kg/day in osmotic minipumps for four weeks, aged-impaired rats.
The subject of another assay is aMCI subjects. In words: explicit 3-alternative forced choice task (lure images). It counts as in vivo, human. From the text: See Folstein et al., J Psychiatric Res 12: 189-98, (1975); Robbins et al., Dementia 5: 266-81, (1994); Rey, L'examen clinique en psychologie, (1964); Kluger et al., J Geriatr Psychiatry Neurol 12:168-79, (1999); Marquis et al., 2002 and Masur et al., 1994, or MATRICS consensus neuropsychological test battery which includes tests of working memory, speed of processing, attention, verbal learning, visual learning, reasoning and problem solving and social cognition. Another example of a cognitive test in humans is the explicit 3-alternative forced choice task. In this test, subjects are presented with color photographs of common objects consisting of a mix of three types of image pairs: similar pairs, identical pairs and unrelated foils. The second of the pair of similar objects is referred to as the “lure”. These image pairs are fully randomized and present individually as a series of images. Subjects are instructed to make a judgment as to whether the objects seen are new, old or similar. A “similar” response to the presentation of a lure stimulus indicates successful memory retrieval by the subject.
The activity of the subject's medial temporal lobe is measured by functional MRI during the subject's participation in an explicit 3-alternative forced choice task, where participants view novel, repeated and similar (“lure”) stimuli. The Psychophysics Toolbox extensions in Matlab 7.0 (The MathWorks, Natick, Mass.) is used for stimulus presentation and behavioral data collection. Stimuli are color photographs of common objects. Each participant undergoes a series of testing runs during the functional imaging sessions, each run consisting of a mix of three types of image pairs: similar pairs, identical pairs and unrelated foils. These image pairs are fully randomized throughout the run and present individually as a series of images (see FIG. 6A). […]
The activity of the subject's medial temporal lobe is measured by functional MRI during the subject's participation in an explicit 3-alternative forced choice task, where participants view novel, repeated and similar (“lure”) stimuli. […]

In another assay the test system is sematostatin in DG hilus. In words: somatostatin in DG hilus after four weeks of osmotic minipump treatment (Example 5). It counts as in vivo, rat. To be noted: levetiracetam 10 mg/kg/day in osmotic minipumps for four weeks, aged-impaired rats.

Consider `CC[C@@H](C(N)=O)N1CCCC1=O` [levetiracetam, (2S)-2-(2-oxopyrrolidin-1-yl) butanamide], for which the “EC activity during memory judgments” value in assay [1] was “normalizes activity”. The “reelin in Entorhinal Cortex (EC2)” value in assay [2] is “restores reelin in Entorhinal Cortex (EC2)”. Moreover, the “performance of aMCI subjects in the memory task (similar vs old responses to lures)” value in the assay with aMCI subjects (levetiracetam 62.5 mg BID for two weeks vs placebo, p=0.041) is recorded as “improves significantly”; in the assay on aMCI subjects (levetiracetam 125 mg twice a day for two weeks vs placebo, p=0.039) it was “improves significantly”; in the assay with aMCI subjects (levetiracetam 250 mg BID for two weeks vs placebo, p=0.2396), “does not significantly improve”. For the same compound, the “somatostatin in DG hilus” value in the assay on sematostatin in DG hilus is reported as “restores sematostatin in DG hilus”.

Values taken from patent publication US11160785B2, “Methods and compositions for improving cognitive function” (AgeneBio, Inc., priority 2013, dated 2021).
